For 29 molecules, EC50, IC50 and outcome results are on record in PubChem BioAssay AID179 (DTP/NCI, 2004).

The source made the active and inactive calls.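 Rule for the calls: active = compounds giving half or more protection of infected cells from virus-caused growth loss, again on retest; inactive = the rest.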

For this test, the system named is CEM cells HIV-1 protection, formazan growth assay. Put plainly: NCI AIDS Antiviral Assay. The settings on record: for IC50: measured here: growth of uninfected CEM cells. An outline of the steps:
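Soluble formazan readout of cell growth; CEM cells ± HIV-1; 5 drug concs. ≥50% protection → retest; ≥50% again = moderately active; reproducible 100% = confirmed active.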

With `Cc1ccc(S(=O)(=O)[C@@H](Cl)[C@H]2N=C(Cl)NN=C2c2ccccc2)cc1`, the EC50 (usually the concentration that produces a half-maximal response) was over 200 µM and the IC50 (as a rule, the concentration that gives 50% inhibition) stood at 37.2 µM.

As to `CCN(/C=C1/C(=O)C(c2ccccc2)N(c2ccccc2)C1=O)CC` (stereo not given), the EC50 was over 200 µM and the concentration for half-maximal inhibition (IC50) is over 200 µM. Turning to `Cn1c(=O)c2nc(-c3ccc(Cl)c(Cl)c3)c(-c3ccc(Cl)c(Cl)c3)nc2n(C)c1=O`, the EC50 is over 200 µM and the IC50 worked out at 29.5 µM. The corresponding values for `Nc1ncnc2c1ccn2C/C=C\CO` are over 200 µM and over 200 µM. The corresponding values for `C=CCc1c(O)c2ccccc2[nH]c1=O` are over 200 µM and over 200 µM.

Regarding `N#CCCN(c1ccc(C=O)cc1)S(=O)(=O)c1ccccc1`, the EC50 was over 22.9 µM and the IC50 was over 22.9 µM. For the molecule `O=C1CC2C(=O)N(Cc3ccccc3)C1C=C2S(=O)(=O)c1ccccc1` (stereo not given), the result was inactive.

Turning to `CC(C)(C)OC(=O)N[C@H]1CC(O)c2ccccc2N(CC(=O)O)C1=O` (stereo not given in full), the EC50 is over 251 µM and the IC50 is over 251 µM.

In the case of `O=C1C(=Cc2c(O)cc(O)cc2O)C(=O)c2ccccc21`, the EC50 was over 17.8 µM and the concentration for half-maximal inhibition (IC50) was over 17.8 µM. Take `O=c1c(I)c[nH]cc1I`: the EC50 is over 200 µM and the IC50 was over 200 µM. Take `O=C(N=Nc1c(O)[nH]c2ccccc12)C(O)(c1ccccc1)c1ccccc1`: the EC50 was over 200 µM and the IC50 was 39.8 µM. For `CCOC(=O)C/C(O)=C(/C=N/C(=S)NNC(C)=O)C(=O)OCC`, in that order: over 200 µM and over 200 µM. As for `CC(=O)NNc1ncc(C(=O)/C=C/c2ccccc2C)s1`, the EC50 is over 22.4 µM and the IC50 is over 22.4 µM. On to `CCC(=O)OC1C(OC2C(C)C(OC3CC(C)(OC)C(O)C(C)O3)C(C)C(=O)OC(CC)C(C)(O)C(O)C(C)C(=O)C(C)CC2(C)O)OC(C)CC1N(C)C` (stereo not given), for which the EC50 was over 200 µM and the IC50 came to 70.8 µM. The corresponding values for `CCOC(=O)C(C(=O)OCC)=C1N[C@H](C(=O)OCC)CS1` are over 295 µM and over 295 µM.

Take `O=C1CS(=O)(=O)C(c2ccccc2F)N1N1C(=O)CS(=O)(=O)C1c1ccccc1F` (stereo not given): the EC50 is over 151 µM and the IC50 is over 151 µM. `NS(=O)(=O)c1cc2c(cc1Cl)NC(C(=O)NNC(=O)c1ccncc1)=NS2(=O)=O`: the EC50 is over 77.6 µM and the IC50 is over 77.6 µM. With `CCC1(CC)SCC(=O)NC1=O`, the EC50 is over 200 µM and the IC50 was over 200 µM.

`O=C(O)c1nn(-c2ccccn2)c(O)c1N=Nc1ccc(/C=C/c2ccc(N=Nc3c(C(=O)O)nn(-c4ccccn4)c3O)cc2S(=O)(=O)O)c(S(=O)(=O)O)c1`: the EC50 was over 20.4 µM and the IC50 is over 20.4 µM.

Turning to `O=C(O)CSc1n[nH]c(-c2ccccc2O)n1`, the EC50 was over 372 µM and the IC50 came to 182 µM. The corresponding values for `CC(C)(C)/[N+]([O-])=[N+](\[O-])C(C)(C)C` are over 200 µM and 33.9 µM.

In the case of `O=c1oc2ccccc2c(O)c1C(C/C(=N/O)c1ccccc1)c1ccccc1` (stereo not given), the EC50 is over 200 µM and the half-inhibitory concentration (IC50) was 70.8 µM. For the molecule `O=S(O)CCCCSSCC(O)C(O)CSSCCCCS(=O)O` (stereo not given), the result was inactive.

`O=C(NNC(=O)c1ccccc1O)c1ccco1`: the EC50 is over 200 µM and the IC50 is 32.4 µM. For `CN(C)CCCNc1ccc([N+](=O)[O-])c2nc3ccccc3c(N)c12`, the EC50 is over 200 µM and the IC50 was found to be 0.209 µM. `Cc1nc(N)nc2c1CCC(O)S2` (stereo not given): the EC50 is over 200 µM and the IC50 was 1.02 µM. For `COc1cccc(N2C(=O)C3c4[nH]c5ccc(C)cc5c4C4CCC(C)CC4C3C2=O)c1` (stereo not given), in that order: over 100 µM and over 100 µM.

Turning to `C=CCOCn1ccc(N)nc1=O`, the result was inactive.

As to `O=C1c2cccc3cccc(c23)C(=O)N1CCNCCN1C(=O)c2cccc3cccc(c23)C1=O`, the EC50 is over 29.5 µM and the IC50 came out at 10.5 µM.
